Assay results published in PubChem BioAssay (NCI).
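96-well plates; 48 h exposure; 5 concentrations. Endpoints by linear interpolation between flanking doses. Not reached: highest tested concentration assigned. TGI marks complete inhibition of growth.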

Assays:
Assay in all cases: growth of human tumour cells (NCI), 48 h
COLO 205 colon = tested on: COLO 205 colon
A498 renal = tested on: A498 renal
RXF 393 renal = tested on: RXF 393 renal
MCF7 breast = tested on: MCF7 breast
NCI-H460 lung = tested on: NCI-H460 lung
HCT-116 colon = tested on: HCT-116 colon
DU-145 prostate = tested on: DU-145 prostate
CCRF-CEM leukemia = tested on: CCRF-CEM leukemia
BT-549 breast = tested on: BT-549 breast
HL-60(TB) leukemia = tested on: HL-60(TB) leukemia
EKVX NSCLC = tested on: EKVX NSCLC
HCC-2998 colon = tested on: HCC-2998 colon
MOLT-4 leukemia = tested on: MOLT-4 leukemia
TK-10 renal = tested on: TK-10 renal
MDA-N = tested on: MDA-N
LOX IMVI melanoma = tested on: LOX IMVI melanoma
ACHN renal = tested on: ACHN renal
NCI-H226 lung = tested on: NCI-H226 lung
UACC-257 melanoma = tested on: UACC-257 melanoma
OVCAR-4 ovarian = tested on: OVCAR-4 ovarian
SK-MEL-5 melanoma = tested on: SK-MEL-5 melanoma
SNB-75 CNS = tested on: SNB-75 CNS
HOP-62 NSCLC = tested on: HOP-62 NSCLC
HT29 colon = tested on: HT29 colon
SK-MEL-2 melanoma = tested on: SK-MEL-2 melanoma
HCT-15 colon = tested on: HCT-15 colon
NCI-H522 lung = tested on: NCI-H522 lung
SR leukemia = tested on: SR leukemia
OVCAR-8 ovarian = tested on: OVCAR-8 ovarian
OVCAR-3 ovarian = tested on: OVCAR-3 ovarian
KM12 colon = tested on: KM12 colon
T-47D breast = tested on: T-47D breast
K-562 leukemia = tested on: K-562 leukemia
SK-OV-3 ovarian = tested on: SK-OV-3 ovarian
HOP-92 NSCLC = tested on: HOP-92 NSCLC
HS 578T breast = tested on: HS 578T breast
786-0 renal = tested on: 786-0 renal
PC-3 prostate = tested on: PC-3 prostate
UACC-62 melanoma = tested on: UACC-62 melanoma
RPMI-8226 leukemia = tested on: RPMI-8226 leukemia
MDA-MB-231 breast = tested on: MDA-MB-231 breast
IGROV1 ovarian = tested on: IGROV1 ovarian
U251 CNS = tested on: U251 CNS
NCI/ADR-RES ovarian = tested on: NCI/ADR-RES ovarian
SF-295 CNS = tested on: SF-295 CNS
SNB-19 CNS = tested on: SNB-19 CNS
SK-MEL-28 melanoma = tested on: SK-MEL-28 melanoma
A549 NSCLC = tested on: A549 NSCLC
SN12C renal = tested on: SN12C renal
SW-620 colon = tested on: SW-620 colon
MDA-MB-435 = tested on: MDA-MB-435
SF-539 CNS = tested on: SF-539 CNS
OVCAR-5 ovarian = tested on: OVCAR-5 ovarian
MALME-3M melanoma = tested on: MALME-3M melanoma
UO-31 renal = tested on: UO-31 renal
CAKI-1 renal = tested on: CAKI-1 renal
SF-268 CNS = tested on: SF-268 CNS
NCI-H23 lung = tested on: NCI-H23 lung

Measured: TGI

O=[N+]([O-])c1ccc2[nH]ncc2c1Cl
48.1 µM: MDA-N
53.8 µM: EKVX NSCLC
40.4 µM: SK-MEL-2 melanoma
16.5 µM: NCI-H522 lung
85.5 µM: OVCAR-4 ovarian
28.2 µM: COLO 205 colon
32.2 µM: DU-145 prostate
27 µM: SK-MEL-5 melanoma
35 µM: MDA-MB-231 breast
38.9 µM: LOX IMVI melanoma
72.6 µM: MOLT-4 leukemia
90.7 µM: PC-3 prostate
44.4 µM: T-47D breast
80.4 µM: HCT-116 colon
89.7 µM: BT-549 breast
59.3 µM: HS 578T breast
39.1 µM: IGROV1 ovarian
77.4 µM: HT29 colon
51.5 µM: ACHN renal
61.2 µM: RPMI-8226 leukemia
62.5 µM: OVCAR-5 ovarian
not listed: MALME-3M melanoma | UO-31 renal | CAKI-1 renal | SF-268 CNS | NCI-H23 lung
> 100 µM: all other assays above

O=c1c2cc([N+](=O)[O-])ccc2n2n1Cc1ccccc1C2
not listed: SK-MEL-2 melanoma | OVCAR-5 ovarian
> 100 µM: all other assays above
